One assay concerns the target ALK1 kinase (Homo sapiens (Human), UniProt P37023). The assay can be described thus: ALK1 kinase assay (ProQinase protocol). It counts as biochemical. The note with it: ProQinase radiometric assay, casein, γ-33P-ATP. On the procedure: B-1b. ALK1 Kinase Assay (ProQinase Protocol)
ALK1 (Invitrogen, Carlsbad, Calif., USA) kinase activity was measured at ProQinase GmbH (Freiburg, Germany) in a radiometric assay using γ-^33P-ATP and casein (Sigma, St. Louis, Mo., USA) as substrate in 96-well PerkinElmer FlashPlates™ (Boston, Mass., USA). The compounds were tested at 10 concentrations in the range of 1×10^−4 M to 3×10^−9 M in a total volume of 50 μl with a final DMSO concentration of 1% each. The assay components were mixed in the order: • 20 μl assay buffer (70 mM HEPES-NaOH, pH 7.5, 3 mM MgCl2, 3 mM MnCl2, 2 μM sodium orthovanadate, 1.2 mM DTT); • 5 μl γ-^33P-ATP (1.0 μM in water, approx. 6×10^5 cpm per well); • 5 μl test compound solution (in 10% DMSO); • […] (200 μg/ml, 1.0 μg/50 μl final concentration)/enzyme (4 μg/ml, 20 ng/50 μl=5.5 nM final concentration) solution (1:1 mixture).
The reaction mixtures were incubated at 30° C. for 60 minutes and stopped by adding 50 μl 2% (v/v) phosphoric acid. The plates were aspirated and washed twice with 200 μl 0.9% (w/v) sodium chloride. Incorporation of ^33Pi was determined with a microplate scintillation counter (Microbeta, Wallac). All assays were performed using a BecicmanCoulter/SAGIAN™ Core System.
Median values obtained from unspecific substrate binding of labelled. ATP were set as background level, while median values measured in the absence of any inhibitor were considered to reflect full activity of ALK1 kinase. The background activity (ba) was subtracted from the full activity (fa) value as well as from the values obtained from the test compound containing samples (test compound activity, tea). The residual activity in the latter was calculated as follows: residual activity (%)=100×[(tca−ba)/(fa−ba)]
The residual activities for each concentration and the compound IC50 values were calculated using Quattro Workflow V3.1.0 (Quattro Research GmbH, Munich, Germany). The fitting model for the IC50 determinations was “Sigmoidal response (variable slope)” with parameters “top” fixed at 100% and “bottom” at 0%. The fitting method used was a least-squares fit.
Chain of ALK1 kinase (P37023 22-503): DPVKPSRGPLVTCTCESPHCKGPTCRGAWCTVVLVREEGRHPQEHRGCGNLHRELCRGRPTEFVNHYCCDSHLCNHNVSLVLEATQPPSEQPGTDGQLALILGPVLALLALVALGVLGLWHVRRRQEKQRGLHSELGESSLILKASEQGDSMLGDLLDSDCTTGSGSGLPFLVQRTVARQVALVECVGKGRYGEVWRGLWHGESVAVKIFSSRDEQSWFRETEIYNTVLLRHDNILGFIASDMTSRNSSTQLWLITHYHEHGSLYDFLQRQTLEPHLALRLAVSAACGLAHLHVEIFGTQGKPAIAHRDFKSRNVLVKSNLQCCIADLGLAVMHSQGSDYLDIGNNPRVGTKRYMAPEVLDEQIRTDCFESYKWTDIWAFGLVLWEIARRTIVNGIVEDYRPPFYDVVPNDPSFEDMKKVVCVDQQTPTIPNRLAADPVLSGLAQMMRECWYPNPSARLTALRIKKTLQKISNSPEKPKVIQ
For orientation: IC50 means the concentration at which inhibition is half-maximal. A lower IC50 goes with higher potency. As to `Nc1ncnn2c1c(-c1cc(F)c(CO)c(F)c1)cc2[C@H]1CC[C@H](O)CC1` [Example 7, trans-4-[4-Amino-5-[3,5-difluoro-4-(hydroxymethyl)phenyl]pyrrolo[2,1-f][1,2,4]triazin-7-yl]-cyclohexanol], the IC50 is 0.0067 µM. Regarding `Nc1ncnn2c([C@@H]3CCCNC3)cc(-c3cc(F)c(CO)c(F)c3)c12` [Example 11, (4-{4-Amino-7-[(3R)-piperidin-3-yl]pyrrolo[2,1-f][1,2,4]triazin-5-yl}-2,6-difluorophenyl)methanol], half-maximal inhibition (IC50) required 0.003 µM.

For the next assay, the system named is hSmad7 mRNA in BMP9-stimulated HMVEC. As to the kind of experiment: Smad7 target gene induction: HMVEC cell assay and TaqMan expression analysis. It counts as cell-based. The note with it: Homo sapiens, hBMP9 stimulation, Smad7 mRNA by TaqMan. On the procedure: B-2a. Smad7 Target Gene Induction: HMVEC Cell Assay and TaqMan Expression Analysis
Activation of ALK1 receptors by BMP9 induces the Smad1/5 signalling pathway and enhances expression of target genes Smad6, Smad7 and Id-1. Induction of Smad7-mRNA in BMP9-stimulated endothelial cells was determined to monitor the cellular potency of ALK1 kinase inhibitors.
Human microvascular endothelial cells (IIMVECadult, Cell Systems, St. Katharinen) were seeded in complete ENGS MV medium with all supplements (LifeLine Cell Technology) in 96 well plates with 10 000 cells per well. After 4 h incubation at 37° C. and 7.5% CO2 in a humidified incubator, medium was replaced with minimal medium (ENGS MV without supplements containing 0.02% FCS). After 16 h, test compounds or medium (controls) were added to the cultures, followed 30 min later by addition of hBMP9 (R&D Systems). Medium was removed 1 to 4 h later, plates were gently washed with phosphate-buffered saline, and cells were lysed with 150 μl per well of ice-cold RLT buffer (Qiagen).
Total cellular RNA was isolated with the Trizol® reagent protocol according to the manufacturer's specifications (Invitrogen, USA) and treated with DNAseI to remove genomic DNA contamination.
For relative quantitation of the mRNA distribution of hSmad7, total RNA from each sample was first reverse-transcribed using the ImProm-II Reverse Transcription System (Promega, USA) according to the manufacturer's protocol. The final volume was adjusted to 200 μl with water.
For relative quantitation of selected mRNA, the Applied Bioscience ABI 7900HT Sequence Detection System was used according to the manufacturer's specifications and protocols. PCR reactions were set up to quantitate hSmad7- and the housekeeping gene L32-mRNA. Forward and reverse primers and probes for hSmad7 and L32 were designed using the Applied Bioscience ABI Primer Expressim software and were synthesized by Eurogentec (Belgium). The hSmad7 forward primer sequence was: Primer 1 (SEQ ID NO 1). The hSmad7 reverse primer sequence was: Primer 2 (SEQ ID NO 2). Probe 1 (SEQ ID NO 3), labelled with FAM as the reporter dye and TAMRA as the quencher, was used as a probe for hSmad7. The L32 forward primer sequence was: Primer 3 (SEQ ID NO 4). The L32 reverse primer sequence was: Primer 4 (SEQ ID NO 5). Probe 2 (SEQ ID NO 6), labelled with FAM as the reporter dye and TAMRA as the quencher, was used as a probe for L32.
The following reagents were prepared in a total of 20 μl added per well: 1× qPCR-MasterMix (Eurogentec, Belgium) and hSmad7 forward and reverse primers each at 200 nM, 200 nM hSmad7 FAM/TAMRA-labelled probe 1 (SEQ ID NO 3), and 5 μl of template cDNA. Correspondingly, a second mix in a total of 20 μl was prepared using L32 FAM/TAMRA-labelled probe 2 (SEQ ID NO 6) and L32 forward and reverse primers added per well in parallel samples.
Thermal cycling parameters were 2 min at 50° C., followed by 10 min at 95° C., followed by 40 cycles of melting at 95° C. for 15 sec and annealing/extending at 60° C. for 1 min.
Calculation of Relative Expression:
The Ct (cycle threshold) values were calculated from the turning point of PCR product quantity curves by the ΔΔCt method (delta-delta Ct): ΔCt=CthSmad7−CtL32; relative expression=2^(15-ΔCt).
IC50 values of test compounds were calculated on basis of relative Smad7 expressions at different compound concentrations.
The compound `Nc1ncnn2c(CN3CCOCC3)cc(-c3ccc(CO)c(F)c3)c12` [Example 21, {4-[4-Amino-7-(morpholin-4-ylmethyl)pyrrolo[2,1-f][1,2,4]triazin-5-yl]-2-fluorophenyl}methanol] came in with an IC50 of 6 µM.

The compound `Nc1ncnn2c(CN3CCOCC3)cc(-c3ccc(CO)c(Cl)c3)c12` [Example 22, {4-[4-Amino-7-(morpholin-4-ylmethyl)pyrrolo[2,1-f][1,2,4]triazin-5-yl]-2-chlorophenyl}methanol] showed a 50% inhibitory concentration (IC50) of 0.8 µM. In turn, `CCCc1cc(-c2cc(F)c(CO)c(F)c2)c2c(N)ncnn12` [Example 2, [4-(4-Amino-7-propylpyrrolo[2,1-f][1,2,4]triazin-5-yl)-2,6-difluorophenyl]methanol] showed a half-inhibitory concentration (IC50) of 0.125 µM. The compound `CCCc1cc(-c2ccc(CO)cc2)c2c(N)ncnn12` [Example 1, [4-(4-Amino-7-propylpyrrolo[2,1-f][1,2,4]triazin-5-yl)phenyl]methanol] returned an IC50 of 0.1 µM. Compound `Nc1ncnn2c(CN3CCOCC3)cc(-c3cc(F)c(CO)c(F)c3)c12` [Example 20, {4-[4-Amino-7-(morpholin-4-ylmethyl)pyrrolo[2,1-f][1,2,4]triazin-5-yl]-2,6-difluorophenyl}-methanol] came in with an IC50 of 4.4 µM. `Nc1nc(-c2cc(-c3ccc(CO)cc3)c3c(N)ncnn23)cs1` [Example 17, {4-[4-Amino-7-(2-amino-1,3-thiazol-4-yl)pyrrolo[2,1-f][1,2,4]triazin-5-yl]phenyl}methanol] yielded a 50% inhibitory concentration (IC50) of 0.12 µM. This IC50 lies about 37-fold lower than the previous one.

`Nc1ncnn2c(C(O)C3CC3)cc(-c3cc(F)c(CO)c(F)c3)c12` (stereo not drawn) [Example 5, {4-Amino-5-[3,5-difluoro-4-(hydroxymethyl)phenyl]pyrrolo[2,1-f][1,2,4]triazin-7-yl}(cyclopropyl)methanol] had an IC50 of 0.15 µM. `Nc1ncnn2c1c(-c1cc(F)c(CO)c(F)c1)cc2[C@H]1CC[C@H](O)CC1` [Example 7, trans-4-[4-Amino-5-[3,5-difluoro-4-(hydroxymethyl)phenyl]pyrrolo[2,1-f][1,2,4]triazin-7-yl]-cyclohexanol] came in with an IC50 of 0.13 µM. `Nc1ncnn2c([C@@H]3CCCNC3)cc(-c3cc(F)c(CO)c(F)c3)c12` [Example 11, (4-{4-Amino-7-[(3R)-piperidin-3-yl]pyrrolo[2,1-f][1,2,4]triazin-5-yl}-2,6-difluorophenyl)methanol] came in with an IC50 of 0.09 µM. In turn, `Nc1ncnn2c(CCCO)cc(-c3ccc(CO)cc3)c12` [Example 3, 3-{4-Amino-5-[4-(hydroxymethyl)phenyl]pyrrolo[2,1-f][1,2,4]triazin-7-yl}propan-1-ol] displayed an IC50 of 0.18 µM.

The record behind these values is patent publication US9040691B2, “Hydroxymethylaryl-substituted pyrrolotriazines as ALK1 inhibitors” (BAYER INTELLECTUAL PROPERTY GMBH, priority 2011, dated 2015).
